Results published in patent US11673880B2, “Solid state forms of ivosidenib” (ASSIA CHEMICAL INDUSTRIES LTD., priority 2017, dated 2023).

Columns and labels:
Type in all cases: physicochemical
[1] = Thermogravimetric analysis (TGA) of Forms T14 and T15; conditions: temperature changed from 27.1° C. to 170° C.
Description: Procedure for Thermo Gravimetric Analysis (TGA) for Forms T14 and T15:
Thermogravimetric analysis was conducted on a TA instrument Q500 thermogravimetric analyzer. About 9.4 mg sample was placed into a tared TGA crucible and placed into a TGA furnace. The furnace was heated under nitrogen at a heating rate of 10° C./min up to 250° C.

[2] = Karl Fischer water content
Description: Water content analysis was performed on Metrohm 890 Titando instrument. About 100 mg sample was added to the titrator, the water content is measured in % w/w by measuring the amount of iodine consumed as a result of reaction with water in the sample.

[3] = Stability and flowability of the solid form (statement, no method given)

Structure (SMILES)	weight loss of the weight of the sample (TGA) [1]	moisture / water content (KF Titration method) [2]	flowability [3]	stability of the crystalline form [3]
N#Cc1ccnc(N2C(=O)CC[C@H]2C(=O)N(c2cncc(F)c2)[C@H](C(=O)NC2CC(F)(F)C2)c2ccccc2Cl)c1 [Form T15, Ivosidenib]	about 3.899%	3.39%		
N#Cc1ccnc(N2C(=O)CC[C@H]2C(=O)N(c2cncc(F)c2)[C@H](C(=O)NC2CC(F)(F)C2)c2ccccc2Cl)c1 [Form T14, Ivosidenib]	about 2.786%	2.7%		
N#Cc1ccnc(N2C(=O)CC[C@H]2C(=O)N(c2cncc(F)c2)[C@H](C(=O)NC2CC(F)(F)C2)c2ccccc2Cl)c1 [Form T11, Ivosidenib]			very good flowability	stable
